Test results: US20130244963A1 (Portola Pharmaceuticals, Inc., priority 2010, published 2013)

Legend:
[1] = test system: collagen induced arthritis (CIA); test: Rat Collagen Induced Arthritis (CIA) Model, hind paw inflammation score; type: in vivo; parameters: scale not given here
Source text: Holmdahl R, Lorentzen J C, Lu S, Olofsson P, Wester L, Holmberg J, et al. Arthritis in rats with non-immunogenic adjuvants as models for rheumatoid arthritis. […] On day 10, the rats were boosted with a second subcutaneous injection. Test article administration was initiated when at least one hind paw was inflamed (clinical arthritis score=1) and enrollment into a treatment group was designated as day 1 of the study for each individual animal (n=4 to 8/dose group). Progression of disease was evidenced by increased edema and erythema of one or both ankle joints, followed by the involvement of the metatarsal and interphalangeal joints. […] Hind paws were scored daily (inflammation score) for progression of disease and evaluated for histopathological changes in cartilage structure, cellularity, matrix glycoaminoglycans, and synovial inflammation at the end of the 16-day treatment course. […] In Tables below, mean scores are calculated for all animals in dosed group over the entire experimental time course.

[2] = Lymphocyte counts in rats with bovine collagen antibody mediated inflammation; type: in vivo, rat
Source text: In 7 control rats treated with vehicle, lymphocyte count was […]. In 4 rats treated with dexamethasone, count=2.32×10^3/μL, p=0.42. However 3 out of 4 of rats did suffer from lymphopenia.

DHL4 = test: Viability of DLBCL cell line DHL4 by luminescent ATP detection (Cell Titer Glo); type: cell-based; conditions: single agents; three days; ATP luminescence
Description: The final concentration of solvent (DMSO) during experimental time course was 1%. The robotic system Biomek 2 was used for all pipetting steps. After three days at 37 degrees in a tissue culture incubator, viability of cells was determined by lysis and luminescent ATP detection. ATP detection was carried out by addition of 20 μL Cell Titer Glo (Promega) following the protocol provided by manufacturer.
The concentrations of the inhibitors required to obtain 50, 75 or 90 percent inhibition are plotted in an isobologram (Tallarida R J. Dose response relations in pharmacology, Chapman and Hall/CRC, 2000).

Flt3 = target: T1, Flt3 (Homo sapiens, UniProt P36888); conditions: cited from earlier work
T1 sequence (P36888 27-993): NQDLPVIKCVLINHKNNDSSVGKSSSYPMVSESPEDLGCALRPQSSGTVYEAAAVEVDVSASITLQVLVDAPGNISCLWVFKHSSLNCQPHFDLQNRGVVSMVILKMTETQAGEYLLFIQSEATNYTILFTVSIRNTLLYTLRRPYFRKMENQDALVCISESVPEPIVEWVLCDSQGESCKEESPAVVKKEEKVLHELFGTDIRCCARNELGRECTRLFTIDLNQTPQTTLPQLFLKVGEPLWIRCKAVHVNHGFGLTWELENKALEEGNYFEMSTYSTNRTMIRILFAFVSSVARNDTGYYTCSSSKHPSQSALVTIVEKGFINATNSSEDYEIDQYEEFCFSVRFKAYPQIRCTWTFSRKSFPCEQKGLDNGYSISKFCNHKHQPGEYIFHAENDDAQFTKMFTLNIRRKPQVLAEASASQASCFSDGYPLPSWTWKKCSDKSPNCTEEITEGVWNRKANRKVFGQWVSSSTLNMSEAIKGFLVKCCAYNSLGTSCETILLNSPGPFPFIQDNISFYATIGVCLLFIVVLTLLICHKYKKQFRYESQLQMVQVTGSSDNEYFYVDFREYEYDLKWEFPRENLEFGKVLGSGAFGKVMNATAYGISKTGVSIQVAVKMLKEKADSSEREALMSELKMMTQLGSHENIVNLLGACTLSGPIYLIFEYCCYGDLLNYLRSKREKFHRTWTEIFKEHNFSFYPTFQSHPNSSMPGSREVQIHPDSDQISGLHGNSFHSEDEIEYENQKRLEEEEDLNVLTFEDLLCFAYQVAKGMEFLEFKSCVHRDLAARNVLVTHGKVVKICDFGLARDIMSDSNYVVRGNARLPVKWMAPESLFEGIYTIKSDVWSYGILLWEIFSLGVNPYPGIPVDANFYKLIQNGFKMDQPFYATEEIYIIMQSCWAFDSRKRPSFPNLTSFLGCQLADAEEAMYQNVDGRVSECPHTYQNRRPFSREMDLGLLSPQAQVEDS

cKit = cKit (Homo sapiens, UniProt P10721); conditions: cited from earlier work
JAK kinases = conditions: cited from earlier work
Src kinase = Src kinase (Homo sapiens, UniProt P12931); conditions: cited from earlier work
Syk (Y525/526) = test: BCR-induced Syk (Y525/526) autophosphorylation in NHL cell lines; type: cell-based; conditions: Homo sapiens, SU-DHL-4; SU-DHL4; read-out: BCR-induced Syk (Y525/526) auto-phosphorylation (IC50)
pBLNK = test: BCR-induced pBLNK formation in NHL cell lines; type: cell-based; conditions: Homo sapiens
pERK [3] = test: BCR-induced pERK formation in NHL cell lines; type: cell-based; conditions: Homo sapiens
pAKT = test: BCR-induced pAKT formation in NHL cell lines; type: cell-based; conditions: Homo sapiens, Ramos
SU-DHL4 [4] = test: Induction of apoptosis, Annexin V binding; type: cell-based
SU-DHL6 [5] = test: Induction of apoptosis, Annexin V binding; type: cell-based
SU-DHL4 [6] = test: Induction of apoptosis, caspase 3 cleavage; type: cell-based
SU-DHL6 [7] = test: Induction of apoptosis, caspase 3 cleavage; type: cell-based
pERK [8] = test: B cell activity in human whole blood: BCR-induced pERK formation; type: cell-based; conditions: healthy normal volunteers, ex vivo
CD69 [9] = test: B cell activity in human whole blood: BCR-induced CD69 expression; type: cell-based; conditions: healthy normal volunteers, ex vivo
CD69 [10] = test: Whole blood B cell activation (CD69) in RA patients with or without MTX; type: cell-based, human; conditions: blood from RA patients on stable doses of MTX (n=18) versus without MTX (n=14); anti IgD activation
Source text: In vitro study of whole blood B cell activation (CD69) in stable RA patients treated with MTX (n=18) or without MTX (n=14).

leukocytes = test: Leukocyte rolling and adhesion in whole blood on collagen type 1 + JAM-C surface; type: cell-based, human; conditions: for percentage increase in fluorescence intensity over baseline: Compound 1 3 uM
Source text: Junction adhesion molecule C (JAM-C) mediates recruitment and adhesion of leukocytes to synovium of patients with rheumatoid arthritis (Rabquer B J, Arthritis Rheum, 2008; 58(10):3020-9). This is an important step in the etiology of rheumatoid arthritis and disruption of this activity may have therapeutic benefit in the treatment of patients with inflammatory diseases such as RA. In order to use an in-vitro experimental system to mimic migration and adhesion of leukocytes, we have used a collagen and JAM-C coated surface for the assay.
Leukocyte rolling and adhesion in human whole blood (from healthy normal volunteers or patients with rheumatoid arthritis) was monitored using real time fluorescence microscopy. […] Prior to experimentation, leukocytes were labeled in whole blood with Rhodamine 6G to permit visualization by fluorescence microscopy. The increase in fluorescence intensity is proportional to the amount of fluorescently labeled leukocytes recruited under the area of observation. […] For quantitation of inhibitory activity (TABLE), data are presented as percentage increase in fluorescence intensity over baseline 180 and 360 sec post initiation of the blood perfusion (see FIG. 4).

[11] = Compound 1 5 mg/kg, first experimental design (5/15/50 mg/kg)
[12] = Compound 1 5 mg/kg, second experimental design (5/10/15 mg/kg)
[13] = Compound 1 10 mg/kg, second experimental design (5/10/15 mg/kg)
[14] = Compound 1 15 mg/kg, first experimental design (5/15/50 mg/kg)
[15] = Compound 1 15 mg/kg, second experimental design (5/10/15 mg/kg)
[16] = Compound 1 50 mg/kg, first experimental design (5/15/50 mg/kg)

Chain of cKit (P10721 26-976): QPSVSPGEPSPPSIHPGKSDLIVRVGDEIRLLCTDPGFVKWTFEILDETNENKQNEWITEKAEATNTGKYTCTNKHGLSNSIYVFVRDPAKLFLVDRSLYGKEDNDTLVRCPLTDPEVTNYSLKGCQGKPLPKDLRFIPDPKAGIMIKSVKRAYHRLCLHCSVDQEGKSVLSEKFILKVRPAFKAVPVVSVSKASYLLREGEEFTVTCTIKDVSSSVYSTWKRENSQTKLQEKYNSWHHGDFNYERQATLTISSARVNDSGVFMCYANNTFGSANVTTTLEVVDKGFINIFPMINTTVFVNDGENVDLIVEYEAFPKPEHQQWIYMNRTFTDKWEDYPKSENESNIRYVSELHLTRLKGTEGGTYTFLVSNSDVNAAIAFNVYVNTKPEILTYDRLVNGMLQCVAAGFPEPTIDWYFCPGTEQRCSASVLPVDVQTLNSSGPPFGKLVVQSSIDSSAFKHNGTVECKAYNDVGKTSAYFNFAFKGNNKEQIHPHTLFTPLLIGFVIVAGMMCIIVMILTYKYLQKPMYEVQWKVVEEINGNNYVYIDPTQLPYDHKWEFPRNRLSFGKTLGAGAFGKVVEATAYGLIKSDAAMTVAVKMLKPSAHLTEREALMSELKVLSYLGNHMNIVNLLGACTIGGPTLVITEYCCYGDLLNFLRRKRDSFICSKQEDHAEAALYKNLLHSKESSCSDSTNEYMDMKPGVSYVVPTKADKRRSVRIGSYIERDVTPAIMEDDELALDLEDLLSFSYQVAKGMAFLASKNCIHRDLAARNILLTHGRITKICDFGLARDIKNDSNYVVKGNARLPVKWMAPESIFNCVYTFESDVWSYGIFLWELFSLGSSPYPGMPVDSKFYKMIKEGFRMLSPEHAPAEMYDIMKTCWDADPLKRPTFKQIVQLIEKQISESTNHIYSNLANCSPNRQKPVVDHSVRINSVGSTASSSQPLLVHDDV
Chain of Src kinase (P12931 whole entry): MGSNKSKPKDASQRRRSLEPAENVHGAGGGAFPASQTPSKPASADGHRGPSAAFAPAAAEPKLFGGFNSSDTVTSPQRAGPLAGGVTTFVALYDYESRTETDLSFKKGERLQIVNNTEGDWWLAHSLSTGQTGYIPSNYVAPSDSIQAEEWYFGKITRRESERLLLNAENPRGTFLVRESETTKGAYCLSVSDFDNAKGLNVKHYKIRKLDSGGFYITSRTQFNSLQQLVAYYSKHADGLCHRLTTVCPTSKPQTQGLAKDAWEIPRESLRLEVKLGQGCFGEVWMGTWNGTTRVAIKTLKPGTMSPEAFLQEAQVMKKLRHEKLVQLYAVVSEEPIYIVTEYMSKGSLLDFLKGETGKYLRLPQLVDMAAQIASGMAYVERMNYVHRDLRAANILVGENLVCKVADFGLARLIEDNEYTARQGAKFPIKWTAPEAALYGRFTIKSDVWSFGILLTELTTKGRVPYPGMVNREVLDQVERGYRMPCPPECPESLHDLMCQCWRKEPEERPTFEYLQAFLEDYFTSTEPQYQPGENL

## CN(Cc1cnc2nc(N)nc(N)c2n1)c1ccc(C(=O)N[C@@H](CCC(=O)O)C(=O)O)cc1 [Methotrexate, reference compound]
[1]; Methotrexate 0.1 mg/kg
  Maximum Inflammation Score measurement: 4.63
  Minimum Inflammation Score measurement: 1.25
[1]; Methotrexate 0.1 mg/kg, all animals over entire time course
  Mean Inflammation Score: 3.65
[1]; Methotrexate 0.3 mg/kg
  Maximum Inflammation Score measurement: 5.00
  Minimum Inflammation Score measurement: 1.00
[1]; Methotrexate 0.3 mg/kg, all animals over entire time course
  Mean Inflammation Score: 4.02
[1]; Methotrexate 1.0 mg/kg
  Maximum Inflammation Score measurement: 4.00
  Minimum Inflammation Score measurement: 1.13
[1]; Methotrexate 1.0 mg/kg, all animals over entire time course
  Mean Inflammation Score: 2.90
[1]; Methotrexate 2.0 mg/kg
  Maximum Inflammation Score measurement: 2.50
  Minimum Inflammation Score measurement: 1.00
[1]; Methotrexate 2.0 mg/kg, all animals over entire time course
  Mean Inflammation Score: 2.11

## C[C@@H]1C[C@H]2[C@@H]3CCC4=CC(=O)C=C[C@]4(C)[C@@]3(F)[C@@H](O)C[C@]2(C)[C@@]1(O)C(=O)CO [Dexamethasone, reference compound]
[1]; Dexamethasone 1 mg/Kg
  Maximum Inflammation Score measurement: 1.50
  Mean Inflammation Score: 0.188
  Minimum Inflammation Score measurement: 0.0
[2]; Lewis, rat, in vivo, 16 day
  rats suffering from lymphopenia: 3 out of 4
[2]; rat, in vivo
  lymphocyte count (group): 2320 µL⁻¹

## COc1cccc2c1C(=O)c1c(O)c3c(c(O)c1C2=O)C[C@@](O)(C(=O)CO)C[C@@H]3O[C@H]1C[C@H](N)[C@H](O)[C@H](C)O1 [Doxorubicin, reference compound]
DHL4
  inhibitory activity on viability of DHL4 cells (in words): dose responsive inhibitory activity

## COc1cc(Nc2ncc(F)c(Nc3ccc4c(n3)N(COP(=O)(O)O)C(=O)C(C)(C)O4)n2)cc(OC)c1OC [Fostamatinib disodium]
Flt3
  activity against Flt3: active
cKit
  activity against cKit: active
JAK kinases
  activity against JAK kinases: active
Src kinase
  activity against Src kinase: not against Src kinsase

## NC(=O)c1cnc(N[C@@H]2CCCC[C@@H]2N)nc1Nc1cccc(-n2nccn2)c1 [Compound 1, 4-(3-(2H-1,2,3-triazol-2-yl)phenylamino)-2-((1R,2S)-2-aminocyclohexylamino)pyrimidine-5-carboxamide]
[1]; [11]
  Maximum Inflammation Score measurement: 5.625
  Mean Inflammation Score: 4.868
  Minimum Inflammation Score measurement: 1.5
[1]; [12]
  Maximum Inflammation Score measurement: 4.75
  Mean Inflammation Score: 3.57
  Minimum Inflammation Score measurement: 1.38
[1]; [13]
  Maximum Inflammation Score measurement: 3.00
  Mean Inflammation Score: 2.15
  Minimum Inflammation Score measurement: 1.13
[1]; [14]
  Maximum Inflammation Score measurement: 1.125
  Mean Inflammation Score: 0.949
  Minimum Inflammation Score measurement: 0.75
[1]; [15]
  Maximum Inflammation Score measurement: 1.38
  Mean Inflammation Score: 1.016
  Minimum Inflammation Score measurement: 0.63
[1]; [16]
  Maximum Inflammation Score measurement: 1.0
  Mean Inflammation Score: 0.169
  Minimum Inflammation Score measurement: 0
[2]; administered as a single agent
  effect on lymphocyte counts: does not produce a reduction in lymphocyte counts
Syk (Y525/526)
  IC50: […]
pBLNK; SU-DHL-4, SU-DHL4
  IC50: […]
pBLNK; SU-DHL-6, SU-DHL6
  IC50: 0.01 to 0.02 µM
pERK [3]; Ramos
  IC50: 0.05 to 0.125 µM
pERK [3]; SU-DHL-6, SU-DHL6
  IC50: 0.1 µM
pAKT
  IC50: 0.05 to 0.125 µM
SU-DHL4 [4]
  Induction of apoptosis— Annexin V binding (% +ve cells): 15.5 % +ve cells
SU-DHL6 [5]
  Induction of apoptosis— Annexin V binding (% +ve cells): 20.3 % +ve cells
SU-DHL4 [6]
  Induction of apoptosis— caspase 3 cleavage (% +ve cells): 26 % +ve cells
SU-DHL6 [7]
  Induction of apoptosis— caspase 3 cleavage (% +ve cells): 47 % +ve cells
pERK [8]
  IC50: 0.25 to 0.5 µM
CD69 [9]
  IC50: 0.25 to 0.5 µM
CD69 [10]
  Syk inhibitory potency in whole blood B cell activation (CD69): higher (reduced IC50)
DHL4
  inhibitory activity on viability of DHL4 cells (in words): dose responsive inhibitory activity
leukocytes; RA patient #8 on Adalimumab, 180 sec, vehicle 51%
  percentage increase in fluorescence intensity over baseline: 7%
leukocytes; RA patient #8 on Adalimumab, 360 sec, vehicle 94%
  percentage increase in fluorescence intensity over baseline: 63%
leukocytes; RA patient #10 on Methotrexate, 180 sec, vehicle 44%
  percentage increase in fluorescence intensity over baseline: 29%
leukocytes; RA patient #10 on Methotrexate, 360 sec, vehicle 107%
  percentage increase in fluorescence intensity over baseline: 86%
leukocytes; RA patient #11 on Methotrexate + prednisone, 180 sec, vehicle 165%
  percentage increase in fluorescence intensity over baseline: 69%
leukocytes; RA patient #11 on Methotrexate + prednisone, 360 sec, vehicle 178%
  percentage increase in fluorescence intensity over baseline: 183%
leukocytes; RA patient #12 on Etanercept, 180 sec, vehicle 61%
  percentage increase in fluorescence intensity over baseline: 17%
leukocytes; RA patient #12 on Etanercept, 360 sec, vehicle 131%
  percentage increase in fluorescence intensity over baseline: 53%
leukocytes; whole blood from RA patients (mild, moderate, severe) on standard of care, in vitro addition of 3 uM
  number of adherent leukocytes (in words): reduces the number of adherent cells
leukocytes; whole blood from healthy donors without inflammatory disease
  number of leukocytes adhering to collagen and JAM-C coated surface (in words): reduces the number of leukocytes adhering
